Test results from patent US11180487B2, “Substituted cyanoindoline derivatives as NIK inhibitors” (Janssen Pharmaceutica NV, priority 2016, dated 2021).
Where two headings read alike, the source gives them in different places.

Columns and labels:
[1] = molecular target: recombinant human NF-kappaB-inducing kinase (NIK/MAP3K14) (Homo sapiens, UniProt Q99558); assay: Inhibition of auto-phosphorylation of recombinant human NIK/MAP3K14 activity (AlphaScreen), Biological Assay A; format: biochemical; conditions: averaged values over all measurements on all batches
Summary of the method: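 GST-tagged enzyme (0.2 nM) incubated with compound and 25 μM ATP in 50 mM Tris pH 7.5, 5 mM MgCl2, 1 mM EGTA, 1 mM DTT, 0.1 mM Na3VO4, 1% DMSO, 1 h at 25 °C. Stopped with anti-phospho-IKK Ser176/180 antibody; AlphaScreen bead read, blank-subtracted, IC50 from sigmoidal fit.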

[2] = tested on: P-IKKα levels in L363 (NIK translocated multiple myeloma) cells; assay: Effect of compounds on P-IKKα levels in L363 cells (Mesoscale sandwich immuno-assay), Biological Assay B; format: cell-based, human; conditions: 2 hr treatment, averaged values, read-out: Inhibition of pIKKα_L-363 (IC50 (nM))
Summary of the method: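 L363 NIK-translocated myeloma cells primed 24 h with 1 μg/ml BAFF (stock), then treated 2 h with compound (1% DMSO, 8-point 1:3 dilutions). Lysate P-IKKα measured by Mesoscale sandwich immunoassay; MG132+BAFF controls, blank with 10 μM ADS125117 subtracted. IC50 from sigmoidal fit of % inhibition versus log concentration.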

[3] = tested on: JJN-3 (NIK translocated) multiple myeloma cells; assay: Antiproliferative activity on JJN-3 multiple myeloma cells (CellTiter-Glo, 96 hr), Biological Assay C; format: cell-based, human; conditions: JJN-3 (NIK translocated) cells, averaged values, read-out: JJN-3 Proliferation inhibition (IC50 (nM))
Summary of the method: (§1)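 JJN-3 and KMS12-BM cells in RPMI 1640 with 10% FCS were plated at 15000–20000 cells/well and treated 96 h with a 9-point 1:3 dilution series (0.3% DMSO). Viability read by CellTiter-Glo luminescence, blank (time-zero cells) subtracted, expressed as % of untreated control; duplicate wells.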

[4] = tested on: KMS12-BM (NIK WT) multiple myeloma cells; assay: Antiproliferative activity on KMS12-BM multiple myeloma cells (CellTiter-Glo, 96 hr), Biological Assay C; format: cell-based, human; conditions: averaged values, read-out: KMS-12 Proliferation inhibition (IC50 (nM))
Summary of the method: as §1

Sequence of recombinant human NF-kappaB-inducing kinase (NIK/MAP3K14) (Q99558 whole entry): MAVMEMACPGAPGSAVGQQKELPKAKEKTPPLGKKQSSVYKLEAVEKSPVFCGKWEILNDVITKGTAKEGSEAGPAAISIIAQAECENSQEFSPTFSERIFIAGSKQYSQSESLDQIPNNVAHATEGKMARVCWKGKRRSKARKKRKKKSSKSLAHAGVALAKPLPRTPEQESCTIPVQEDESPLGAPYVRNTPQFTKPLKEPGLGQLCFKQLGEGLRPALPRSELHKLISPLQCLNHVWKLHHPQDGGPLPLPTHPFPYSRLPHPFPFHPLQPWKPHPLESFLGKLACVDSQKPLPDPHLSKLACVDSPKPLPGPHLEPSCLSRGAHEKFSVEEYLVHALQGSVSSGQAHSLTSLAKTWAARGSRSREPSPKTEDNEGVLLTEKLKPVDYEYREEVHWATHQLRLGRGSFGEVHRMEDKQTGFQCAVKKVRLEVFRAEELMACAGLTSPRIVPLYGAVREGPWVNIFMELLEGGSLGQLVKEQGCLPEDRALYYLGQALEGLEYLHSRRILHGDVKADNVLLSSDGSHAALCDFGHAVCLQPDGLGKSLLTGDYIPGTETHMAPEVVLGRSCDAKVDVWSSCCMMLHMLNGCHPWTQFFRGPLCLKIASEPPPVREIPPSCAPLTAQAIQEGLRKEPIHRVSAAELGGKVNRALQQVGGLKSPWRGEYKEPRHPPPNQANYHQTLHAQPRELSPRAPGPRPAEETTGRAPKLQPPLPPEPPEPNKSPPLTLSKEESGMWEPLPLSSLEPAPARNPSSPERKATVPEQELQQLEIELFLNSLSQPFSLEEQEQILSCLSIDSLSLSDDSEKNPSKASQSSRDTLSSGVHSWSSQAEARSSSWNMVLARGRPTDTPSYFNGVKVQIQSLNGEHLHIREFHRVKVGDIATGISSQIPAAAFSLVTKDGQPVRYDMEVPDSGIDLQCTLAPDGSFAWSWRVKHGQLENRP

IC50 [1] | IC50 [2] | IC50 [3] | IC50 [4] | melting point | IC50 ([2]; Homo sapiens, L-363, 2 h) | IC50 ([3]; Homo sapiens, JJN-3, 96 h) | IC50 ([4]; Homo sapiens, KMS-12-BM, 96 h) | Structure (SMILES)
8.7 nM | 8.3 nM | ~1000 nM | > 10000 nM | 256 °C | – | – | – | Cc1cc(F)c(C(=O)NC2CCOC2)cc1Nc1nccc(-c2cc(C#N)c3c(c2)[C@@](C)(CO)CN3)n1 (single isomer, unassigned) [Compound 169]
2 nM | – | – | – | 230 °C | 2.6 nM | 42 nM | ~891 nM | Cc1cc(C2CCCN(C)C2)c(C#N)cc1Nc1nccc(-c2cc(C#N)c3c(c2)[C@@](C)(CO)CN3)n1 (single isomer, unassigned) [Compound 178]
28.5 nM | – | – | – | > 250 °C | 22.9 nM | 118 nM | ~6610 nM | COc1cc(N2CCC(O)CC2)c(Cl)cc1Nc1nccc(-c2cc(C#N)c3c(c2)C(C)(C)CN3)n1 [Compound 105]
63.1 nM | – | – | – | 208 °C | 123 nM | 1620 nM | > 10000 nM | COC(=O)c1cc(OC)c(Nc2nccc(-c3cc(C#N)c4c(c3)C(C)(C)CN4)n2)cc1Cl [Compound 106]
11 nM | – | – | – | > 260 °C | 3.8 nM | 39 nM | > 3980 nM | COc1cc(C(=O)NC2CCOCC2)c(Cl)cc1Nc1nccc(-c2cc(C#N)c3c(c2)C(C)(C)CN3)n1 [Compound 108]
13.8 nM | – | – | – | 213 °C | 3.6 nM | 182 nM | ~6920 nM | CC(=O)OC[C@@]1(C)CNc2c(C#N)cc(-c3ccnc(Nc4cc(C#N)ccc4C)n3)cc21 [Compound 125]
112 nM | – | – | – | 200 °C | ~6.9 nM | 151 nM | ~8910 nM | Cc1ccc(C#N)cc1Nc1nccc(-c2cc(C#N)c3c(c2)[C@@](C)(COC(=O)C(C)C)CN3)n1 [Compound 126]
129 nM | – | – | – | 158 °C | 11.5 nM | 570 nM | > 10000 nM | COCCOc1ccc(C#N)cc1Nc1nccc(-c2cc(C#N)c3c(c2)[C@@](C)(COC(C)=O)CN3)n1 [Compound 127]
251 nM | – | – | – | 156 °C | 20.9 nM | 407 nM | > 10000 nM | CC(=O)OC[C@@]1(C)CNc2c(C#N)cc(-c3ccnc(Nc4cc(C#N)ccc4OCC4CC4)n3)cc21 [Compound 128]
1.4 nM | 3.2 nM | 330 nM | ~7940 nM | 190 °C | – | – | – | Cc1ccc(C#N)cc1Nc1nccc(-c2cc(C#N)c3c(c2)[C@@](C)(CO)CN3)n1 [Compound 129]
1.5 nM | 2.2 nM | 167 nM | 9770 nM | 264 °C | – | – | – | Cc1ccc(C#N)cc1Nc1nccc(-c2cc(C#N)c3c(c2)[C@@](C)(CO)CN3)n1 [Compound 130]

Further lines, the compound ahead of its results:

Structure (SMILES) | IC50 [1] | IC50 [2] | IC50 [3] | IC50 [4] | melting point | IC50 ([2]; Homo sapiens, L-363, 2 h) | IC50 ([3]; Homo sapiens, JJN-3, 96 h) | IC50 ([4]; Homo sapiens, KMS-12-BM, 96 h)
Cc1ccc(C#N)cc1Nc1nccc(-c2cc(C#N)c3c(c2)[C@@](C)(CO)CN3)n1 [Compound 1] | 1.8 nM | 2.2 nM | 85 nM | 5190 nM | 222 °C | – | – | –
C[C@]1(CO)CNc2c(C#N)cc(-c3ccnc(Nc4cc(C#N)ccc4OCCO)n3)cc21 [Compound 8] | 1.3 nM | – | – | – | 184 °C | 32.4 nM | 87 nM | > 10000 nM
C[C@]1(CO)CNc2c(C#N)cc(-c3ccnc(Nc4cc(C#N)ccc4OCC4CC4)n3)cc21 [Compound 13] | 9.2 nM | – | – | – | 194 °C | 30.9 nM | 146 nM | > 10000 nM
CC1(COc2ccc(C#N)cc2Nc2nccc(-c3cc(C#N)c4c(c3)[C@@](C)(CO)CN4)n2)COC1 [Compound 14] | 5.5 nM | – | – | – | 162 °C | 21.4 nM | 170 nM | > 10000 nM
CCCCc1ccc(C#N)cc1Nc1nccc(-c2cc(C#N)c3c(c2)[C@@](C)(CO)CN3)n1 [Compound 15] | 11 nM | – | – | – | 110 °C | ~269 nM | 117 nM | > 10000 nM
CC(C)Oc1ccc(C#N)cc1Nc1nccc(-c2cc(C#N)c3c(c2)[C@@](C)(CO)CN3)n1 [Compound 16] | 15.5 nM | – | – | – | 162 °C | 15.5 nM | 258 nM | 550 nM
Cc1cc(S(C)(=O)=O)ccc1Nc1nccc(-c2cc(C#N)c3c(c2)[C@@](C)(CO)CN3)n1 [Compound 17] | 1.1 nM | – | – | – | 148 °C | 6.8 nM | 56 nM | 479 nM
CC(C)Oc1cc(P(C)(C)=O)ccc1Nc1nccc(-c2cc(C#N)c3c(c2)[C@@](C)(CO)CN3)n1 [Compound 18] | 2.6 nM | – | – | – | 263 °C | 20 nM | 407 nM | ~8130 nM
C[C@]1(CO)CNc2c(C#N)cc(-c3ccnc(Nc4cc(C#N)c(C5CCOCC5)cc4OCC4CC4)n3)cc21 [Compound 19] | 27.5 nM | – | – | – | 284 °C | 38.9 nM | 1950 nM | > 10000 nM
COCCOc1ccc(Cl)cc1Nc1nccc(-c2cc(C#N)c3c(c2)[C@@](C)(CO)CN3)n1 [Compound 45] | 9.1 nM | – | – | – | 169 °C | 37.2 nM | 490 nM | > 10000 nM
COc1cc(P(C)(C)=O)ccc1Nc1nccc(-c2cc(C#N)c3c(c2)[C@@](C)(CO)CN3)n1 [Compound 64] | 1.8 nM | – | – | – | 160 °C | 18.2 nM | ~246 nM | 1230 nM
Cc1ccc(C#N)cc1Nc1nccc(-c2cc(C#N)c3c(c2)[C@](C)(CO)CN3)n1 [Compound 65] | 4.1 nM | – | – | – | 218 °C | 103 nM | 1100 nM | > 10000 nM
COCCOc1ccc(C#N)cc1Nc1nccc(-c2cc(C#N)c3c(c2)[C@@](C)(CO)CN3)n1 [Compound 66] | 3 nM | – | – | – | 165 °C | 5.9 nM | 251 nM | 19 nM
COc1cc(S(C)(=O)=O)ccc1Nc1nccc(-c2cc(C#N)c3c(c2)[C@@](C)(CO)CN3)n1 [Compound 73] | 2.2 nM | – | – | – | 201 °C | 1.4 nM | 68 nM | > 10000 nM
COCCCc1ccc(C#N)cc1Nc1nccc(-c2cc(C#N)c3c(c2)[C@@](C)(CO)CN3)n1 [Compound 74] | 4 nM | – | – | – | 124 °C | 16.2 nM | 182 nM | ~1150 nM
CN1CCC(Oc2ccc(Cl)cc2Nc2nccc(-c3cc(C#N)c4c(c3)C(C)(C)CN4)n2)CC1 [Compound 80] | 15.2 nM | – | – | – | 192 °C | 209 nM | 124 nM | 1000 nM
